These results are taken from paper PMC7955127, “Preclinical small molecule WEHI-7326 overcomes drug resistance and elicits response in patient-derived xenograft models of human treatment-refractory tumors” (Cell Death & Disease, 2021).

A short description of one data set: HepG2 cytotoxic assay. As to conditions: human; HepG2 cells, cell viability after 48 h. The format is cell-based. As to the method:
a Chemical structures of the triazine-based anti-mitotics used in this study. b Dose-dependent antiproliferative activity of key derivatives and comparison with commonly used anti-mitotics in SW480 cell line: Data shown is cell viability (as measured by CellTiterGlo) after 72 h relative to untreated control cells. Shown is mean of 3 independent experiments performed in duplicate +/- SEM. c Dose-dependent cell cycle analysis of key derivatives of WEHI-7326 development in SW480 cell line. Data are presented as percentage of cells in G2/M or subG0 after 24 h incubation with titration of inhibitors as assessed by PI staining and flow cytometry. Mean average of 3 experiments +/- SEM. d Comparison of IC50 and EC50 values of triazine compounds and anti-mitotic drugs in SW480 cell line: inhibition of cellular proliferation and cell cycle arrest in G2/M. IC50 and EC50 values are the mean of 3 independent experiments run in duplicates +/- SEM (n.d. = not determined). e HepG2 cytotoxic assay: cell viability assay after 48 h, normalised to 0.4% DMSO (100% viability) and 2 μM bortezomib (0% viability). The data is the mean average of 2 experiments +/- SD.

A further data set has as its system 134197 HGSOC PDX. Description: HGSOC PDX model 134197. Type of data set: in vivo, NSG mice. Particulars: 134197 cisplatin-resistant PDX; 20 mg/kg i.v. biweekly, 6 weeks. Here is the method: (§1) Two to three mm ovarian tumor fragments were subcutaneously engrafted in the left flank of NSG mice and monitored by physical palpation for tumor growth and engraftment. Engrafted tumors were measured twice a week using digital Vernier calipers and maximum tumor diameter + perpendicular tumor length were digitally recorded into the Study Director software (v 3.0/4.0 StudyLog). Tumor volume was calculated automatically (tumor volume (mm^3) = 0.5236 x [larger diameter (mm) x smaller diameter (mm)^2]). Mice were randomized to treatment once their tumor volume reach 180–300 mm^3 and tumor measurements were performed twice a week up to 120 days or when the tumor volume reaches 700 mm^3.
(§2) Time to progressive disease (PD): Defined as the time (in days) from beginning of treatment to an increase in average tumor volume of >20% from the nadir (taken as the smallest average tumor volume recorded since treatment started or 200 mm^3 if nadir was <200 mm^3 as lesions smaller than this are difficult to measure with accuracy). Median time to harvest (TTH): Defined as the time (in days) from the beginning of treatment to day of harvest at 700 mm^3 and the median TTH was calculated and plotted using Kaplan-Meier curves. Based on ref. [27]. […]

The subject of another data set is 134169 HGSOC PDX. Kind of data set: HGSOC post-chemo PDX model 134169. Type of data set: in vivo, NSG mice. As to conditions: 134169 post-taxane, cisplatin-refractory PDX; 20 mg/kg i.v. twice a week, 6 weeks. Here is the method:
as §1, §2

In data set [1] the test system is spontaneous neuroblastoma in Th-MYCN transgenic mice. Description: Th-MYCN transgenic mouse model of neuroblastoma. The format is in vivo. As to conditions: WEHI-7326 20 mg/kg i.v. twice weekly, standard-of-care combinations daily i.p. for 5 days. As to the method: All animal studies were performed in accordance with the guidelines approved by University of New South Wales Animal Care and Ethics Committee (ACEC 17/53B) and in accordance with the requirements of the Australian Code for the Care and Use of Animals for Scientific Purposes. PDX models COG-N-440x and COG-N-496x were obtained from the Childhood Cancer Repository, Texas Tech University Health Sciences Center in Lubbock, TX, USA. 6–8 week old female NSG mice were engrafted by subcutaneous injection with 1 × 10^6 freshly thawed PDX tumor cells into one flank in a mixture of 100 μl RPMI-1640 and 100 μl Matrigel. Mice were monitored for tumor development three times weekly and tumor size measured using digital Vernier calipers. Treatments commenced when tumors reached 50 mm^3, following randomization into treatment arms. […] Mice were treated with either vincristine (0.5 mg/kg, once weekly i.p. in sterile saline for up to 5 weeks), WEHI-7326 (20 mg/kg; twice weekly i.v. in sterile saline for up to 5 weeks) or vehicle (as for WEHI-7326). For the Th-MYCN transgenic mouse model, spontaneous tumor growth in mice homozygous for the MYCN transgene was assessed by abdominal palpation at least twice a week. Treatments commenced once a small palpable tumor (~5 mm) was detected, following randomization to treatment arms. Mice were euthanized upon detection of an abdominal tumor of ~1 cm in diameter. […]

Data set [2] has as its system LIM2537 (colon carcinoma) xenograft. Kind of data set: LIM2537 tumor xenograft in nude mice. Particulars: i.p. three times weekly. The format is in vivo, BALB/c nude mice. As to the method: Tumor cell lines LIM2537, U87MGΔ2–7EGFR or H1437 were collected by trypsinization, counted and injected at 5 × 10^6 cells/ site subcutaneously on both flanks of BALB/c nude mice. Treatment with vehicle control or WEHI-7326 at given dose was initiated after 5 days. Drug or vehicle (100 μl) was injected intraperitoneally three times weekly. Control group and treatment group consisted of 8 mice each. Tumors were measured twice weekly with calipers. Tumor volumes were estimated using the modified ellipsoid formula V = 1/2 (length × width^2). The experiments were terminated when tumors in the control group started ulcerating or exceeded 17 mm in length, in line with the LICR/DoS Animal Ethics Committee guidelines (11/05 A).

As usually defined, the IC50 is the midpoint of a concentration-inhibition curve. As for `COc1ccc(CNc2nc(NCc3ccc(CN)cc3)nc(NN3CC(=O)NC3=O)n2)cc1` [WEHI-7326], the IC50 at 48 h in “HepG2 cytotoxic assay” is greater than 40 µM. Besides, in the data set with 134197 HGSOC PDX, the “Median time to harvest (TTH)” value came out at 92 days and the “Time to progressive disease (PD)” value is 35 days. The Tumor response result in the data set with 134169 HGSOC PDX is given as “ineffective”. In addition, in data set [1], the Median survival stood at 44 days. For the same compound, the Tumor growth entry in data set [2] is on record as “effective in reducing tumor growth”.
